Assay results: PubChem BioAssay AID1915 (Broad Institute, 2009)
Inconclusive results are not listed.

Tested on: Group A Streptococcus UMAA2166 viability, BacTiterGlo luminescence, 6 h
Test: GAS UMAA2166 growth inhibition – luminescence, BacTiterGlo, counter-screen for streptokinase expression inhibitor project, dose response (AID 1915)

Row | Structure (SMILES) | IC50 [µM]
1 | CNC(CC(C)C)C(=O)NC1C(=O)NC(CC(N)=O)C(=O)NC2C(=O)NC3C(=O)NC(C(=O)NC(C(=O)O)c4cc(O)cc(O)c4-c4cc3ccc4O)C(O)c3ccc(c(Cl)c3)Oc3cc2cc(c3OC2OC(CO)C(O)C(O)C2OC2CC(C)(N)C(O)C(C)O2)Oc2ccc(cc2Cl)C1O (configuration not stated) | 0.341
2 | CN(C)c1ccnc2c[cH-]cc12.[Fe].c1ccc(-[c-]2[c-](-c3ccccc3)[c-](-c3ccccc3)[c-](-c3ccccc3)[c-]2-c2ccccc2)cc1 (configuration not stated) | 8.69
